Data taken from PubChem BioAssay (NCI).
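Compound exposure: 48 hours, 5 concentrations, 96-well plates. Definition used: TGI = concentration required for complete inhibition of growth.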

Assays:
Test in all cases: growth of human tumour cells (NCI), 48 h
786-0 renal = system: 786-0 renal
A549 NSCLC = system: A549 NSCLC
ACHN renal = system: ACHN renal
CAKI-1 renal = system: CAKI-1 renal
CCRF-CEM leukemia = system: CCRF-CEM leukemia
COLO 205 colon = system: COLO 205 colon
DU-145 prostate = system: DU-145 prostate
EKVX NSCLC = system: EKVX NSCLC
HCC-2998 colon = system: HCC-2998 colon
HCT-116 colon = system: HCT-116 colon
HCT-15 colon = system: HCT-15 colon
HL-60(TB) leukemia = system: HL-60(TB) leukemia
HOP-62 NSCLC = system: HOP-62 NSCLC
HOP-92 NSCLC = system: HOP-92 NSCLC
HS 578T breast = system: HS 578T breast
HT29 colon = system: HT29 colon
IGROV1 ovarian = system: IGROV1 ovarian
K-562 leukemia = system: K-562 leukemia
KM12 colon = system: KM12 colon
LOX IMVI melanoma = system: LOX IMVI melanoma
M14 melanoma = system: M14 melanoma
MALME-3M melanoma = system: MALME-3M melanoma
MCF7 breast = system: MCF7 breast
MDA-MB-231 breast = system: MDA-MB-231 breast
MDA-MB-435 = system: MDA-MB-435
MDA-N = system: MDA-N
MOLT-4 leukemia = system: MOLT-4 leukemia
NCI-H226 lung = system: NCI-H226 lung
NCI-H23 lung = system: NCI-H23 lung
NCI-H460 lung = system: NCI-H460 lung
NCI-H522 lung = system: NCI-H522 lung
NCI/ADR-RES ovarian = system: NCI/ADR-RES ovarian
OVCAR-3 ovarian = system: OVCAR-3 ovarian
OVCAR-5 ovarian = system: OVCAR-5 ovarian
OVCAR-8 ovarian = system: OVCAR-8 ovarian
PC-3 prostate = system: PC-3 prostate
RPMI-8226 leukemia = system: RPMI-8226 leukemia
RXF 393 renal = system: RXF 393 renal
SF-268 CNS = system: SF-268 CNS
SF-295 CNS = system: SF-295 CNS
SF-539 CNS = system: SF-539 CNS
SK-MEL-2 melanoma = system: SK-MEL-2 melanoma
SK-MEL-28 melanoma = system: SK-MEL-28 melanoma
SK-MEL-5 melanoma = system: SK-MEL-5 melanoma
SK-OV-3 ovarian = system: SK-OV-3 ovarian
SN12C renal = system: SN12C renal
SNB-19 CNS = system: SNB-19 CNS
SNB-75 CNS = system: SNB-75 CNS
SW-620 colon = system: SW-620 colon
U251 CNS = system: U251 CNS
UACC-257 melanoma = system: UACC-257 melanoma
UACC-62 melanoma = system: UACC-62 melanoma
UO-31 renal = system: UO-31 renal

`CC1(C)COC(c2ccc(C(=O)c3ccc(Cl)cc3)cc2)=N1` gave a TGI (786-0 renal) greater than 100 µM, a TGI (A549 NSCLC) greater than 100 µM and a TGI (ACHN renal) greater than 100 µM. For the same compound, the TGI (CAKI-1 renal) was greater than 100 µM, the TGI (CCRF-CEM leukemia) was greater than 100 µM and the TGI (COLO 205 colon) was greater than 100 µM. The TGI (DU-145 prostate) was greater than 100 µM, the TGI (EKVX NSCLC) was greater than 100 µM and the TGI (HCC-2998 colon) was greater than 100 µM. It also gave a TGI (HCT-116 colon) greater than 100 µM, a TGI (HCT-15 colon) greater than 100 µM and a TGI (HL-60(TB) leukemia) greater than 100 µM. For the same compound, the TGI (HOP-62 NSCLC) was greater than 100 µM, the TGI (HOP-92 NSCLC) was greater than 100 µM and the TGI (HS 578T breast) was greater than 100 µM. For the same compound, the TGI (HT29 colon) was greater than 100 µM, the TGI (IGROV1 ovarian) was greater than 100 µM and the TGI (K-562 leukemia) was greater than 100 µM. The TGI (KM12 colon) was greater than 100 µM, the TGI (LOX IMVI melanoma) was greater than 100 µM and the TGI (M14 melanoma) was greater than 100 µM. The TGI (MALME-3M melanoma) was greater than 100 µM, the TGI (MCF7 breast) was greater than 100 µM and the TGI (MDA-MB-231 breast) was greater than 100 µM. The TGI (MDA-MB-435) was greater than 100 µM, the TGI (MDA-N) was greater than 100 µM and the TGI (MOLT-4 leukemia) was greater than 100 µM. For the same compound, the TGI (NCI-H226 lung) was greater than 100 µM, the TGI (NCI-H23 lung) was greater than 100 µM and the TGI (NCI-H460 lung) was greater than 100 µM. The TGI (NCI-H522 lung) was greater than 100 µM, the TGI (NCI/ADR-RES ovarian) was greater than 100 µM and the TGI (OVCAR-3 ovarian) was greater than 100 µM. For the same compound, the TGI (OVCAR-5 ovarian) was greater than 100 µM, the TGI (OVCAR-8 ovarian) was greater than 100 µM and the TGI (PC-3 prostate) was greater than 100 µM. It also gave a TGI (RPMI-8226 leukemia) greater than 100 µM, a TGI (RXF 393 renal) greater than 100 µM and a TGI (SF-268 CNS) greater than 100 µM. For the same compound, the TGI (SF-295 CNS) was greater than 100 µM, the TGI (SF-539 CNS) was greater than 100 µM and the TGI (SK-MEL-2 melanoma) was greater than 100 µM. For the same compound, the TGI (SK-MEL-28 melanoma) was greater than 100 µM, the TGI (SK-MEL-5 melanoma) was 30.5 µM and the TGI (SK-OV-3 ovarian) was greater than 100 µM. For the same compound, the TGI (SN12C renal) was greater than 100 µM, the TGI (SNB-19 CNS) was greater than 100 µM and the TGI (SNB-75 CNS) was greater than 100 µM. The TGI (SW-620 colon) was greater than 100 µM, the TGI (U251 CNS) was greater than 100 µM and the TGI (UACC-257 melanoma) was 64.9 µM. It also gave a TGI (UACC-62 melanoma) greater than 100 µM and a TGI (UO-31 renal) greater than 100 µM.
